Measurements reported in patent US20190077795A1, “ARGININE […] INHIBITORS AND USES THEREOF” (Epizyme, Inc., priority 2014, published 2019).
Read-outs that look alike come from different tables or passages of the source.

Assays:
human PRMT6 = target: T1, human PRMT6 (Homo sapiens, UniProt Q96LA8); assay: PRMT6 Biochemical Assay
T1 construct: Flag-PRMT6-His; made in house; host or cells: HEK 293F cells (BacMam baculovirus, pFastBacMam)
Excerpt: (§1) S-adenosylmethionine (SAM), S-adenosylhomocysteine (SAH), bicine, Tween20, dimethylsulfoxide (DMSO), bovine skin gelatin (BSG), sodium butyrate and Tris(2-carboxyethyl)phosphine hydrochloride solution (TCEP) were purchased from Sigma-Aldrich at the highest level of purity possible. ^3H-SAM was purchase from American Radiolabeled Chemicals with a specific activity of 80 Ci/mmol. 384-well streptavidin Flashplates were purchased from PerkinElmer.
Peptide representative of human histone H4 residues 36-50 was synthesized with an N-terminal linker-affinity tag motif and a C-terminal amide cap by 21st Century Biochemicals.
The amplified gene was subcloned into pFastBacMam (Viva Biotech).
Recombinant baculovirus were generated according to Bac-to-Bac kit instructions (Life Technologies). […] Infections were carried out at 37° C. for 48 hours, harvested by centrifugation, and stored at −80° C. for purification.
Column was washed with 20 mM imidazole in the same buffer and Flag-PRMT6-His was eluted with 150 mM imidazole. Pooled fractions were dialysed against buffer Ni-A and further purified by anti-flag M2 affinity chromatography. Flag-PRMT6-His was eluted with 200 ug/ml FLAG peptide in the same buffer. Pooled fractions were dialysed in 20 mM Tris, 150 mM NaCl, 10% glycerol and 5 mM β-mercaptoethanol, pH 7.8.
General Procedure for PRMT6 Enzyme Assays on Peptide Substrates.
(§2) The assays were all performed in a buffer consisting of 20 mM Bicine (pH=7.6), 1 mM TCEP, 0.005% BSG, and 0.002% Tween 20, prepared on the day of use. […] DMSO (1 ul) was added to Columns 11, 12, 23, 24, rows A-H for the maximum signal control and 1 ul of SAH, a known product and inhibitor of PRMT6, was added to columns 11, 12, 23, 24, rows I-P for the minimum signal control. A cocktail (40 ul) containing the PRMT6 enzyme was added by Multidrop Combi (Thermo-Fisher). The compounds were allowed to incubate with PRMT6 for 30 min at room temperature, then a cocktail (10 ul) containing SAM and peptide was added to initiate the reaction (final volume=51 ul). […] The assays were stopped by the addition of non-radiolabeled SAM (10 ul) to a final concentration of 400 uM, which dilutes the ^3H-SAM to a level where its incorporation into the peptide substrate is no longer detectable. 50 ul of the reaction in the 384-well polypropylene plate was then transferred to a 384-well Flashplate and the biotinylated peptides were allowed to bind to the streptavidin surface for at least 1 hour before being washed once with 0.1% Tween20 in a Biotek ELx405 plate washer. The plates were then read in a PerkinElmer TopCount plate reader to measure the quantity of ^3H-labeled peptide bound to the Flashplate surface, measured as disintegrations per minute (dpm) or alternatively, referred to as counts per minute (cpm).
(§3) Where dpm=disintegrations per minute, cmpd=signal in assay well, and min and max are the respective minimum and maximum signal controls.
(§4) Where top and bottom are the normally allowed to float, but may be fixed at 100 or 0 respectively in a 3-parameter fit. The Hill Coefficient normally allowed to float but may also be fixed at 1 in a 3-parameter fit. Y is the % inhibition and X is the compound concentration.

human PRMT1 = target: T2, human PRMT1 (Homo sapiens, UniProt Q99873); assay: PRMT1 Biochemical Assay; conditions: peptide substrate, 3H-SAM Flashplate assay
T2 construct: GST-tagged PRMT1; made in house; host or cells: High Five insect cells (baculovirus, pFastBac1)
T2 sequence (Q99873 with tags, fused parts or gaps): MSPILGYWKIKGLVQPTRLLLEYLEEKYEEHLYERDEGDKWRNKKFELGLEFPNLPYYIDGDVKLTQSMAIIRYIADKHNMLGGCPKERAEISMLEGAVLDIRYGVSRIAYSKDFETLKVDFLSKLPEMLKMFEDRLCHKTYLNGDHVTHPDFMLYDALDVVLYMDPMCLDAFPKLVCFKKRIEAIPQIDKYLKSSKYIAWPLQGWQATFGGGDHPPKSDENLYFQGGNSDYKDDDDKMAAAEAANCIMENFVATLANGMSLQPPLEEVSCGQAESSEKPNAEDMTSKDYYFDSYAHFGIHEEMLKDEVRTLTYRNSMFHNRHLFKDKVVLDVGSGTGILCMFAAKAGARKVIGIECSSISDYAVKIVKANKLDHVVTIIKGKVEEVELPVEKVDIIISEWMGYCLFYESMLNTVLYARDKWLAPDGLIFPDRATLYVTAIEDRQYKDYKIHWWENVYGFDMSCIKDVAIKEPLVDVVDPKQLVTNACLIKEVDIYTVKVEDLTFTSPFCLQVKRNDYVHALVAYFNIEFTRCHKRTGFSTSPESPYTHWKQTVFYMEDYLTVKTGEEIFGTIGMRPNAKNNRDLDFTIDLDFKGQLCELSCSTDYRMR
Excerpt: as §1, with “(BSG),” for “(BSG), sodium butyrate”
Recombinant baculovirus were generated according to Bac-to-Bac kit instructions (Life Technologies). […] Infections were carried out at 27° C. for 48 hours, harvested by centrifugation, and stored at −80° C. for purification.
GST-tagged PRMT1 was eluted with 50 mM Tris, 2 mM glutathione, pH 7.8, dialysed in buffer A and concentrated to 1 mg/mL.
General Procedure for PRMT1 Enzyme Assays on Peptide Substrates.
as §2, with “PRMT1,” for “PRMT6,”, “PRMT1” for “PRMT6”, “300” for “400”
as §3, §4

human PRMT8 = human PRMT8 (Homo sapiens, UniProt Q9NR22); assay: PRMT8 Biochemical Assay; conditions: peptide substrate, 3H-SAM Flashplate assay
Chain of human PRMT8 (Q9NR22 whole entry): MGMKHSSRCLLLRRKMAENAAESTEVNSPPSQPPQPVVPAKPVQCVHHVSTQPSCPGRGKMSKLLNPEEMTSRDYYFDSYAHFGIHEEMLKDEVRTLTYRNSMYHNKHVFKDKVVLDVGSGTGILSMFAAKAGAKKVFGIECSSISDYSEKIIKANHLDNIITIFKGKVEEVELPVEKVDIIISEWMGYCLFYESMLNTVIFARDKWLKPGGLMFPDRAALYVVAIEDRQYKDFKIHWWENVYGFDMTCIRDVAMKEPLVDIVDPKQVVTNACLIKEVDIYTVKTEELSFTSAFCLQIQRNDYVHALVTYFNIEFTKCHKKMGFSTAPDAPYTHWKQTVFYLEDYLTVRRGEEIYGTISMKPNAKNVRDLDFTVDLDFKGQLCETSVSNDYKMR

[1] = test system: mono-methyl arginine in RKO cells; assay: RKO Methylation Assay, In Cell Western (ICW); assay type: cell-based; conditions: 72 hours
Excerpt: RKO adherent cells were purchased from ATCC (American Type Culture Collection), Manassas, Va., USA. DMEM/Glutamax medium, penicillin-streptomycin, heat inactivated fetal bovine serum, 0.05% trypsin and D-PBS were purchased from Life Technologies, Grand Island, N.Y., USA. Odyssey blocking buffer, 800CW goat anti-rabbit IgG (H+L) antibody, and Licor Odyssey infrared scanner were purchased from Licor Biosciences, Lincoln, Nebr., USA. Mono-methyl arginine antibody was purchased from Cell Signaling Technology, Danvers, Mass., USA. Methanol was purchased from VWR, Franklin, Mass., USA. 10% Tween 20 was purchased from KPL, Inc., Gaithersburg, Md., USA. DRAQ5 was purchased from Biostatus Limited, Leicestershire, UK.
RKO adherent cells were maintained in growth medium (DMEM/Glutamax medium supplemented with 10% v/v heat inactivated fetal bovine serum and 100 units/mL penicillin-streptomycin) and cultured at 37° C. under 5% CO2.
Cell treatment, In Cell Western (ICW) for detection of mono-methyl arginine and DNA content.
Compound (100 nL) from a 96-well source plate was added directly to 384 well cell plate. Plates were incubated at 37° C., 5% CO2 for 72 hours. After three days of incubation, plates were brought to room temperature outside of the incubator for ten minutes and blotted on paper towels to remove cell media. 50 μL of ice cold 100% methanol was added directly to each well and incubated for 30 min at room temperature. After 30 min, plates were transferred to a Biotek EL406 plate washer and washed 2 times with 100 μL per well of wash buffer (1×PBS). Next 60 μL per well of Odyssey blocking buffer (Odyssey Buffer with 0.1% Tween 20 (v/v)) were added to each plate and incubated 1 hour at room temperature. Blocking buffer was removed and 20 μL per well of primary antibody was added (mono-methyl arginine diluted 1:200 in Odyssey buffer with 0.1% Tween 20 (v/v)) and plates were incubated overnight (16 hours) at 4° C. Plates were washed 5 times with 100 μL per well of wash buffer. […] The plates were washed 5 times with 100 μL per well wash buffer then 2 times with 100 μL per well of water. Plates were allowed to dry at room temperature then imaged on the Licor Odyssey machine which measures integrated intensity at 700 nm and 800 nm wavelengths. Both 700 and 800 channels were scanned.
First, the ratio for each well was determined by:
Each plate included fourteen control wells of DMSO only treatment (minimum activation) as well as fourteen control wells for maximum activation treated with 20 μM of a reference compound. The average of the ratio values for each control type was calculated and used to determine the percent activation for each test well in the plate. Reference compound was serially diluted three-fold in DMSO for a total of nine test concentrations, beginning at 20 μM. Percent activation was determined and EC30 curves were generated using triplicate wells per concentration of compound.

[2] = peptide substrate, 3H-SAM Flashplate assay, read-out: PRMT6 IC50

T1 sequence (Q96LA8 with tags, fused parts or gaps): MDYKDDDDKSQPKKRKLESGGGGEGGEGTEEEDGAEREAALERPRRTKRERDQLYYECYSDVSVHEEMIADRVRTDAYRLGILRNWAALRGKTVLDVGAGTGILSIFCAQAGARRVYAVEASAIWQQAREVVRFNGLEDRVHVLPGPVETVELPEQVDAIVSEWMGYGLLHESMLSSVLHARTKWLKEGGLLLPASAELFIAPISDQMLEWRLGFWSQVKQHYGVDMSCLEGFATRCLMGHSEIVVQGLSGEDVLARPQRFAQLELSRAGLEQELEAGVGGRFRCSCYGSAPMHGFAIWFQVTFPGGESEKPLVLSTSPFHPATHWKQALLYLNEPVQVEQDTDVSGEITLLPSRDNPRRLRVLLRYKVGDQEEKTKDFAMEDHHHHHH

Row | Structure (SMILES) | IC50 (human PRMT6; [2]) [µM] | IC50 (human PRMT1; read-out: PRMT1 IC50) [µM] | IC50 (human PRMT8; PRMT8 IC50 (uM)) [µM] | ICW EC30 [1] [nM] | IC50 (human PRMT6; PRMT6 IC50 (uM), peptide substrate, 3H-SAM Flashplate assay) [µM] | IC50 (human PRMT6; read-out: PRMT6 IC50) [µM] | IC50 (human PRMT8; read-out: PRMT8 IC50) [µM] | IC50 (human PRMT1; PRMT1 IC50 (uM)) [µM]
1 | CNCCN(C)Cc1c[nH]nc1-c1cc(OC2CCOC2)cc(C(F)(F)F)c1 (centres unmarked) [Compound 84] | 0.707 | 0.0207 | 0.228 | 4957 | – | – | – | –
2 | CNCCN(C)Cc1c[nH]nc1-c1ccc(OC2CCOCC2)nc1 [Compound 119] | 0.0329 | 0.0415 | 0.123 | 1292 | – | – | – | –
3 | CNCCN(C)Cc1ccnn1[C@H]1CC[C@@H](COC)CC1 [Compound 110] | 0.143 | 0.0364 | – | 1204 | – | – | – | –
4 | CNCCN(C)Cc1c[nH]nc1-c1ccc(OCCOc2cccc(OCCC3CCOCC3)c2)cc1 [Compound 14] | 0.00518 | 0.00549 | 0.0146 | 347.3 | – | – | – | –
5 | CCOCC(C)c1cc(OCCOC)cc(-c2n[nH]cc2CN(C)CCNC)c1 (centres unmarked) [Compound 132] | > 10 | 0.0494 | 0.15 | 3608 | – | – | – | –
6 | CNCCN(C)Cc1cn[nH]c1-c1ccc(OC2CC(OCCC3CCOCC3)C2)cc1 (centres unmarked) [Compound 145] | – | 0.119 | 0.223 | – | 0.0101 | – | – | –
7 | CNCCN(C)Cc1c[nH]nc1-c1ccc(OC2CC(OCCC3CCCCC3)C2)cc1 (centres unmarked) [Compound 150] | – | – | – | >20000 | – | – | – | –
8 | CNCCN(C)Cc1c[nH]nc1-c1ccc(OC2CC(OCCC3CCCCC3)C2)cc1 (centres unmarked) [Compound 100] | 0.00465 | 0.03 | 0.0599 | – | – | – | – | –
9 | CNCCN(C)Cc1c[nH]nc1-c1ccc(N(C)CC2CCOCC2)nc1 [Compound 120] | 0.272 | 0.0417 | – | 4389 | – | – | – | –
10 | CNCCN(C)Cc1c[nH]nc1-c1ccc(OC2CC(OCC(C)C)C2)cc1 (centres unmarked) [Compound 131] | 0.0182 | 0.0492 | – | 14756 | – | – | – | –
11 | CNCCN(C)Cc1c[nH]nc1-c1ccc(OCCOc2ccc(OCCC3CCOCC3)cc2)cc1 [Compound 55] | 0.0186 | 0.0113 | 0.023 | – | – | – | – | –
12 | COCCCOc1cc(-c2n[nH]cc2CN(C)CCN)cc(C(F)(F)F)c1Cl [Compound 115] | 1.82 | 0.0391 | 0.563 | – | – | – | – | –
13 | CNCCN(C)Cc1c[nH]nc1-c1cc(OC(CO)CC(C)C)cc(C(F)(F)F)c1 (centres unmarked) [Compound 73] | – | – | – | 2102 | – | 1.9 | 0.0438 | –
14 | CNCCN(C)Cc1c[nH]nc1-c1cc(OC2CCCC2)cc(C(F)(F)F)c1 [Compound 76] | 0.254 | 0.0163 | 0.0871 | – | – | – | – | –
15 | CNCCN(C)Cc1c[nH]nc1-c1cc(F)c(OC(CO)CO)c(C(F)(F)F)c1 [Compound 107] | 0.066 | 0.0355 | 0.085 | – | – | – | – | –
16 | CNCCN(C)Cc1c[nH]nc1-c1ccc(OCCOc2ccnnc2)cc1 [Compound 112] | 0.0278 | 0.0373 | – | 3994 | – | – | – | –
17 | CCN(Cc1ccncc1)c1ccc(-c2n[nH]cc2CN(C)CCNC)cn1 [Compound 113] | 0.105 | 0.0374 | 0.243 | – | – | – | – | –
18 | CNCCN(C)Cc1c[nH]nc1-c1cc(OCCCC(C)C)cc(C(F)(F)F)c1 [Compound 13] | 0.285 | 0.00531 | 0.0261 | – | – | – | – | –
19 | CNCCN(C)Cc1c[nH]nc1-c1ccc(O[C@H]2C[C@H](OCCC3CCOCC3)C2)cc1 [Compound 155, N1,N2-dimethyl-N1-((3-(4-(3-(2-(tetrahydro-2H-pyran-4-yl)ethoxy)cyclobutoxy)phenyl)-1H-pyrazol-4-yl)methyl)ethane-1,2-diamine bis(2,2,2-trifluoroacetate)] | 0.0101 | 0.119 | – | – | – | – | 0.223 | –
20 | CNCCN(C)Cc1c[nH]nc1-c1ccc(CC(C)C)c(C(F)(F)F)c1 [Compound 50] | 0.0677 | – | 0.0245 | – | – | – | – | 0.0105
21 | CNCCN(C)Cc1c[nH]nc1-c1ccc(NC(C)c2cccnc2)nc1 (centres unmarked) [Compound 52] | 0.0206 | 0.0107 | 0.026 | – | – | – | – | –
22 | CNCCN(C)Cc1c[nH]nc1-c1ccc(NC(C)c2ccncc2)nc1 (centres unmarked) [Compound 67] | 0.031 | 0.0147 | 0.062 | – | – | – | – | –
